Legend:
FXR = biological target: T1, FXR (Homo sapiens, UniProt Q96RI1); test: FXR transactivation luciferase reporter assay in transfected HepG2 cells; format: cell-based
T1 construct: expressed in transfected cells; host or cells: HepG2
T1 sequence (Q96RI1 1-486): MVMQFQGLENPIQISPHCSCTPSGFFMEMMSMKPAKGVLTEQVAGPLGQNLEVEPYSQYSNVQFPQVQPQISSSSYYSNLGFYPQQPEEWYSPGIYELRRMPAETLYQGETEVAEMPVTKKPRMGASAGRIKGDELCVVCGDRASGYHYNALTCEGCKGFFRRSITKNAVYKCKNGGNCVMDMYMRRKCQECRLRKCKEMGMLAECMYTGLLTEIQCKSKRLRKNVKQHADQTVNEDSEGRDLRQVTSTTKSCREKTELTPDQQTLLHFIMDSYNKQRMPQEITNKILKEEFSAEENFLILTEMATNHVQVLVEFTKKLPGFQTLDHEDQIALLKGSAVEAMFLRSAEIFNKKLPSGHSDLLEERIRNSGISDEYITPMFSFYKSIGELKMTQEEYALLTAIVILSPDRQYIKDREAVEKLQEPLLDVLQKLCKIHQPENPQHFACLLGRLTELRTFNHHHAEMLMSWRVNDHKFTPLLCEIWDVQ
T1 sequence (P19793 1-462 partner): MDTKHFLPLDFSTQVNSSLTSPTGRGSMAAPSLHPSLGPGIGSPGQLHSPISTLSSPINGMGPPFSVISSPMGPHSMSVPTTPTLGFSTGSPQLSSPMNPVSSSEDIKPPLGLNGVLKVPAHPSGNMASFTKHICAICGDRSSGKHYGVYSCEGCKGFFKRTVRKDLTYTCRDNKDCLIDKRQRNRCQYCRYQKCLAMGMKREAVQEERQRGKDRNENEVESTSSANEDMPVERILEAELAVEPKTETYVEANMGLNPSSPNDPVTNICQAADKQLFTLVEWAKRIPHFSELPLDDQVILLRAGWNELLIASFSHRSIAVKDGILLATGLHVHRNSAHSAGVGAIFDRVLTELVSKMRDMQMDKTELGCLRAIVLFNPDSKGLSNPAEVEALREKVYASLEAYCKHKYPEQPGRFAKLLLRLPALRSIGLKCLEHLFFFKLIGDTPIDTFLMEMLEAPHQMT
Procedure: Figure 6 Transactivation assays on FXR. (A) HepG2 cells were transfected with pSG5-FXR, pSG5-RXR, pCMV-βgal, and p(hsp27)TKLUC vectors. […] Twenty-four hour post transfection cells were stimulated with increasing concentrations of each agent: range from 100 nM to 10 μM.
To evaluate the transcriptional activity of FXR, HepG2 cells were transiently transfected with Fugene HD reagent (Promega) using the followings plasmids: pCMVSPORT-humanFXR, pSG5RXR, p(hsp27)TKLUC and pGL4.70, a plasmid containing the Renilla gene used for luciferase normalization.

CC[C@H]1[C@@H](O)[C@@H]2[C@H](CC[C@]3(C)[C@@H]([C@H](C)CCC(=O)O)CC[C@@H]23)[C@@]2(C)CCCC[C@@H]12 [compound 10, 6α-ethyl-7α-hydroxy-5β-cholan-24-oic acid]
EC50 (FXR; HepG2 cells transfected with FXR, luciferase reporter, 100 nM to 10 μM): 950 nM
FXR transactivation activity (in words) (FXR; HepG2 cells, compounds at 10 μM, CDCA 10 μM and 6-ECDCA 1 μM as positive controls): potent agonists of FXR
Tauro-conjugated bile acids (tMu, tCA, tHCA, tCDCA, tDCA, tLCA), plasmatic concentration (mice, 15 mg/kg ip, 6 h): unaffected
Blood concentration of 7α-hydroxy-4-cholesten-3-one (mice, 15 mg/kg, indirect measure of CYP7A1 activity): reduced
Form of the compound found in blood (mouse, in vivo, ip, 15 mg/kg): only found in the conjugated form with taurine
